Test results taken from ChEMBL document CHEMBL4610105, “Microketides A and B, Polyketides from a Gorgonian-Derived Microsphaeropsis sp. Fungus” (J Nat Prod, 2020).
Values after ≈ are worked out from the molar mass of the structure shown.

Legend:
[1] = system: Salmonella enterica subsp. enterica serovar Paratyphi B; assay: Antibacterial activity against Salmonella paratyphi B assessed as reduction in microbial growth after 18 hrs by MTT based broth dilution method; format: functional
[2] = system: Kocuria rhizophila; assay: Antibacterial activity against Kocuria rhizophila assessed as reduction in microbial growth after 18 hrs by MTT based broth dilution method; format: functional
[3] = system: Micrococcus luteus; assay: Antibacterial activity against Micrococcus lysodeikticus assessed as reduction in microbial growth after 18 hrs by MTT based broth dilution method; format: functional
[4] = system: Shigella dysenteriae; assay: Antibacterial activity against Shigella dysenteriae assessed as reduction in microbial growth after 18 hrs by MTT based broth dilution method; format: functional
[5] = system: Priestia megaterium; assay: Antibacterial activity against Bacillus megaterium assessed as reduction in microbial growth after 18 hrs by MTT based broth dilution method; format: functional
[6] = system: Nocardia brasiliensis; assay: Antibacterial activity against Nocardia brasiliensis assessed as reduction in microbial growth after 18 hrs by MTT based broth dilution method; format: functional
[7] = system: Vibrio parahaemolyticus; assay: Antibacterial activity against Vibrio parahaemolyticus assessed as reduction in microbial growth after 18 hrs by MTT based broth dilution method; format: functional
[8] = system: Bacillus anthracis; assay: Antibacterial activity against Bacillus anthracis assessed as reduction in microbial growth after 18 hrs by MTT based broth dilution method; format: functional
[9] = system: Pseudomonas aeruginosa; assay: Antibacterial activity against Pseudomonas aeruginosa assessed as reduction in microbial growth after 18 hrs by MTT based broth dilution method; format: functional
[10] = system: Salmonella typhi; assay: Antibacterial activity against Salmonella typhi assessed as reduction in microbial growth after 18 hrs by MTT based broth dilution method; format: functional, Salmonella enterica subsp. enterica serovar Typhi; conditions: Salmonella enterica
[11] = system: Klebsiella aerogenes; assay: Antibacterial activity against Enterobacter aerogenes assessed as reduction in microbial growth after 18 hrs by MTT based broth dilution method; format: functional
[12] = system: Bacillus cereus; assay: Antibacterial activity against Bacillus cereus assessed as reduction in microbial growth after 18 hrs by MTT based broth dilution method; format: functional
[13] = system: Bacillus subtilis; assay: Antibacterial activity against Bacillus subtilis assessed as reduction in microbial growth after 18 hrs by MTT based broth dilution method; format: functional
[14] = system: Proteus vulgaris; assay: Antibacterial activity against Proteus vulgaris assessed as reduction in microbial growth after 18 hrs by MTT based broth dilution method; format: functional
[15] = system: Isochrysis galbana; assay: Anti-phytoplankton activity against Isochrysis galbana after 96 hrs by fluorometric method; format: functional, organism-based
[16] = system: Colletotrichum truncatum; assay: Antifungal activity against Colletotrichum truncatum assessed as reduction in microbial growth; format: functional
[17] = Antifungal activity against Gloeosporium musarum assessed as reduction in microbial growth; format: functional
[18] = system: Heterosigma akashiwo; assay: Anti-phytoplankton activity against Heterosigma akashiwo after 96 hrs by fluorometric method; format: functional, organism-based
[19] = system: Karenia mikimotoi; assay: Anti-phytoplankton activity against Karenia mikimotoi after 96 hrs by fluorometric method; format: functional, organism-based
[20] = system: Escherichia coli; assay: Antibacterial activity against Escherichia coli assessed as reduction in microbial growth after 18 hrs by MTT based broth dilution method; format: functional
[21] = system: Candida albicans; assay: Antifungal activity against Candida albicans assessed as reduction in microbial growth; format: functional
[22] = system: Tetraselmis helgolandica; assay: Anti-phytoplankton activity against Platymonas helgolandica after 96 hrs by fluorometric method; format: functional, organism-based
[23] = system: Pestalotiopsis calabae; assay: Antifungal activity against Pestalotia calabae assessed as reduction in microbial growth; format: functional

Compound	MIC [1] [µg/mL]	MIC [2] [µg/mL]	MIC [3] [µg/mL]	MIC [4] [µg/mL]	MIC [5] [µg/mL]	MIC [6] [µg/mL]	MIC [7] [µg/mL]	MIC [8] [µg/mL]	MIC [9] [µg/mL]	MIC [10] [µg/mL]	MIC [11] [µg/mL]	MIC [12] [µg/mL]	MIC [13] [µg/mL]	MIC [14] [µg/mL]	EC50 [15] [µg/mL]	MIC [16] [µg/mL]	MIC [17] [µg/mL]	EC50 [18] [µg/mL]	MIC [21] [µg/mL]	MIC [23] [µg/mL]	other results
O=C(O)c1cn(C2CC2)c2cc(N3CCNCC3)c(F)cc2c1=O [CIPROFLOXACIN]	0.05	0.19	0.19	0.19	0.19	0.19	0.19	0.19	0.19	0.09	0.05	0.09	0.09	0.09							
CC1=C(Cc2c(C)cccc2O)C(=O)[C@@](C)(O)[C@H](O)C1	0.39	0.39	0.78	6.25	0.19	0.39	3.13	0.39	1.56	0.19	1.56	0.39	1.56	1.56	> 50	3.13	3.13	> 50	3.13	3.13	EC50 [19]: > 50 µg/mL; MIC [20]: 3.13 µg/mL; EC50 [22]: 16.8 µg/mL (≈ 60.8 µM)
CC1=C(Cc2c(C)cccc2O)C(=O)[C@@](C)(O)[C@@H](O)C1	0.19	0.19	0.39	3.13	0.19	0.19	0.39	0.19	0.19	0.19	0.19	0.19	0.19	0.39	> 50	1.56	3.13	> 50	1.56	1.56	EC50 [19]: > 50 µg/mL; MIC [20]: 1.56 µg/mL; EC50 [22]: 12.3 µg/mL (≈ 44.5 µM)
CC(=O)N1CCN(c2ccc(OCC3COC(Cn4ccnc4)(c4ccc(Cl)cc4Cl)O3)cc2)CC1 (centres undefined) [KETOCONAZOLE]																0.19	0.39		0.78	0.78	
